# Where two headings read alike, the source gives them in different places. Starred links: 1 amine or outer side, 2 acyl side, 3 side chain; linkers in the order of their positions; H or OH if unused. Non-standard residues stand in square brackets, D forms with d. Residues, ends and D or L forms follow the SMILES beside them. Groups on a side chain read outwards from the residue. *: point of attachment. C20 diacid = O=C(O)CCCCCCCCCCCCCCCCCCC(=O)*; γGlu = O=C(O)[C@H](CCC(=O)[*:2])N[*:1]; NMeI = CC[C@H](C)[C@H](NC)C(=O)O; AEEA = NCCOCCOCC(=O)O
# How the values were obtained:
# [1] = cynomolgus monkey, in vivo, iv, 96.4 nmol/kg, T1/2
# Procedure: Plasma concentrations of compounds were determined by LC/MS methods. Each method measured the intact compound; peptide plus linked time extension. […] Two distinct layers were formed upon centrifugation with the compound and the IS located in the supernatant layer. An aliquot of the supernatant (80 μl) was transferred to a Thermo Protein Precipitation Plate with water (150 μl) and formic acid (25 μl) followed by mixing. A final 31% acetonitrile in 10% formic acid sample (10 μl) was loaded onto a Supelco Analytical Discovery BIO Wide Pore C5-3 column (5 cm×1 mm, 3 μm). The column effluent was directed into a Thermo Q-Exactive mass spectrometer for detection and quantitation.
# Male Cynomolgus monkeys were administered a single subcutaneous dose or intravenous dose (96.4 nmol/kg) of a compound described herein in 20 mM Tris-HCl Buffer (pH 7) at a volume of 1 mL/kg. Blood was collected from each animal at 2, 6, 24, 48, 72, 96, 168, 240, 336, 408, and 504 hours postdose for pharmacokinetic characterization.
# [2] = test system: UniNx db/db AAV renin mice; test: Uninephrectomized db/db AAV renin model of diabetic nephropathy; assay type: in vivo
# Procedure: The uninephrectomized db/db adeno-associated viral (AAV) renin model represents a progressive model of diabetic kidney disease with hypertension driven by an AAV renin transgene (Am J Physiol Regul Integr Comp Physiol. 309(5):R467-74, (2015)).
# The uninephrectomy (UniNx) surgery on female db/db mice on a C57BLKS/J background (obtained from Harlan Laboratories) is performed by Harlan Laboratories at 4 weeks of age with removal of the right kidney to accelerate the diabetic kidney disease. Animals are received at 5 weeks of age and housed in micro-isolator cages at 3 mice per cage and are on a 12 hour light/dark cycle. All db/db mice are fed ad libitum with Purina special diet 5008 and allowed free access to autoclaved water.
# Mice are acclimated for 7 weeks prior to administration of AAV Renin (5×10^9 GC) intravenously by the retro-orbital sinus to induce persistent hypertension. Randomization by urine albumin to creatinine ratio (ACR), blood glucose and body weight is done at 15 weeks of age (a point at which renal disease and pathology are established in this model based on observations) into 2 groups of 12 saline control mice and 33 mice to receive Lisinopril treatment.
# Dosing with Lisinopril (30 mg/L) begins at 16 weeks of age. After 2 weeks of Lisinopril treatment, the 33 mice are randomized by urine ACR, blood glucose and body weight into 4 groups (one group of 9 mice and 3 groups of 8 mice).
# In the 4 groups of UniNx db/db AAV renin mice receiving Lisinopril treatment, either 0.9% physiological saline for injection (“saline control” N=9) or different dose levels of Example 4 (7.2, 24 or 72 nmol/kg, N=8 per dose level) are dosed at 0.2 mL s.c. per injection beginning at 18 weeks of age and continued 3 times weekly for 12 weeks. Albumin and creatinine are measured in urine with a Roche Hitachi Modular Analytics P analyzer with Roche reagents for detection of albumin and creatinine.
# For all the groups, the parameters measured are body weight, kidney weight, heart weight, urine albumin to creatinine ratio, serum creatinine and renal pathology scores for mesangial matrix expansion, glomerular fibrosis, tubular regeneration, interstitial inflammation and interstitial fibrosis.
# At 15 and 27 weeks of age, blood (30 to 50 uL) from all the UniNx db/db AAV Renin mice is obtained from the tail vein and dropped onto a Precision PCx blood glucose sensor electrode strip (Abbott Laboratories) for blood glucose determination with a MediSense Precision PCx glucometer (Abbott Laboratories). Blood glucose data is used to block the UniNx db/db mice into equivalent groups. Body weight is determined at baseline and at termination with a Metler Toledo Balance. The heart and kidney are removed at necropsy and weighed on a Metler Toledo Balance. Blood (500 ul) is collected from the retro-orbital sinus at termination under isoflurane anesthesia. The clotted blood is centrifuged to obtain serum. Serum is analyzed for creatinine on a Roche Hitachi Modular Analytics P analyzer with reagents from Roche.
# Urine is collected by a spot collection method to collect urine over a 2-4 hr time period. An individual mouse is placed on top of a 96 well polypropylene microplate and then covered by a Plexiglas chamber with holes for breathing but no access to food or water. At the end of the time period, the urine is removed from the plate with a micropipette and placed on ice, centrifuged and subjected to albumin and creatinine analysis. Urine albumin, creatinine and glucose are determined on a Roche Hitachi Modular Analytics P analyzer. Urine creatinine is determined with the Creatinine Plus reagent by Roche. For urine albumin, the Roche Microalbumin assay is modified to adapt the calibration curve for measuring urine albumin in mice. Albuminuria was defined as albumin to creatinine ratio (ACR).
# Kidneys are removed at study termination, fixed in formalin and processed for paraffin sectioning according to standard methodology. […]
# [3] = in vivo; conditions: male, CD-1, mouse, sc, 350 nmol/kg
Structure (SMILES),half-life [1],deaths over the course of the study ([2]; Lisinopril plus 7.2 nmol/kg Example 4 group (N=8)),deaths over the course of the study ([2]; Lisinopril plus 24 nmol/kg Example 4 group (N=8)),deaths over the course of the study ([2]; Lisinopril plus 72 nmol/kg Example 4 group (N=8)),CL/F [3],half-life [3]
CC[C@H](C)[C@H](NC(C)=O)C(=O)N[C@H](C(=O)N[C@@H](CC(C)C)C(=O)N[C@@H](CO)C(=O)N[C@@H](CC(C)C)C(=O)N[C@@H](CC(=O)O)C(=O)N[C@H](C(=O)N1CCC[C@H]1C(=O)N[C@H](C(=O)NCC(=O)N[C@@H](CC(C)C)C(=O)N[C@@H](CC(C)C)C(=O)N[C@@H](CCC(N)=O)C(=O)N[C@H](C(=O)N[C@@H](CC(C)C)C(=O)N[C@@H](CC(C)C)C(=O)N[C@@H](CCC(=O)O)C(=O)N[C@@H](CCC(N)=O)C(=O)N[C@@H](CCC(=O)O)C(=O)N[C@@H](CCCCN)C(=O)N[C@@H](CCC(N)=O)C(=O)N[C@@H](CCC(=O)O)C(=O)N[C@@H](CCCCN)C(=O)N[C@@H](CCC(=O)O)C(=O)N[C@@H](CCCCN)C(=O)N[C@@H](CCC(N)=O)C(=O)N[C@@H](CCC(N)=O)C(=O)N[C@@H](C)C(=O)N[C@@H](CCCCNC(=O)COCCOCCNC(=O)COCCOCCNC(=O)CC[C@H](NC(=O)CC[C@H](NC(=O)CCCCCCCCCCCCCCCCCCC(=O)O)C(=O)O)C(=O)O)C(=O)N[C@H](C(=O)N[C@@H](CC(N)=O)C(=O)N[C@@H](C)C(=O)N[C@@H](CCC(N)=O)C(=O)N[C@H](C(=O)N[C@@H](CC(C)C)C(=O)N[C@@H](C)C(=O)N[C@@H](CCC(N)=O)C(=O)N[C@H](C(N)=O)C(C)C)[C@@H](C)CC)[C@@H](C)O)[C@@H](C)CC)[C@@H](C)CC)C(C)C)C(C)C [Example 2] (Ac-IVLSLDVPIGLLQILLEQEKQEKEKQQAK([AEEA-AEEA-γGlu-γGlu-C20 diacid])TNAQILAQV-NH2),124 h,–,–,–,–,–
CC[C@H](C)[C@H](NC)C(=O)N[C@H](C(=O)N[C@@H](CC(C)C)C(=O)N[C@@H](CO)C(=O)N[C@@H](CC(C)C)C(=O)N[C@@H](CC(=O)O)C(=O)N[C@H](C(=O)N1CCC[C@H]1C(=O)N[C@H](C(=O)NCC(=O)N[C@@H](CC(C)C)C(=O)N[C@@H](CC(C)C)C(=O)N[C@@H](CCC(N)=O)C(=O)N[C@H](C(=O)N[C@@H](CC(C)C)C(=O)N[C@@H](CC(C)C)C(=O)N[C@@H](CCC(=O)O)C(=O)N[C@@H](CCC(N)=O)C(=O)N[C@@H](CCC(=O)O)C(=O)N[C@@H](CCCCN)C(=O)N[C@@H](CCC(N)=O)C(=O)N[C@@H](CCC(=O)O)C(=O)N[C@@H](CCCCN)C(=O)N[C@@H](CCC(=O)O)C(=O)N[C@@H](CCCCN)C(=O)N[C@@H](CCC(N)=O)C(=O)N[C@@H](CCC(N)=O)C(=O)N[C@@H](C)C(=O)N[C@@H](CCCCNC(=O)COCCOCCNC(=O)COCCOCCNC(=O)CC[C@H](NC(=O)CC[C@H](NC(=O)CCCCCCCCCCCCCCCCCCC(=O)O)C(=O)O)C(=O)O)C(=O)N[C@H](C(=O)N[C@@H](CC(N)=O)C(=O)N[C@@H](C)C(=O)N[C@@H](CCC(N)=O)C(=O)N[C@H](C(=O)N[C@@H](CC(C)C)C(=O)N[C@@H](C)C(=O)N[C@@H](CCC(N)=O)C(=O)N[C@H](C(N)=O)C(C)C)[C@@H](C)CC)[C@@H](C)O)[C@@H](C)CC)[C@@H](C)CC)C(C)C)C(C)C [Example 4] (H-[NMeI]VLSLDVPIGLLQILLEQEKQEKEKQQAK([AEEA-AEEA-γGlu-γGlu-C20 diacid])TNAQILAQV-NH2),–,1,3,3,0.113 mL/min/kg,18 h

# From patent US10894817B2, “Fatty acid modified urocortin-2 analogs for the treatment of diabetes and chronic kidney disease” (priority 2016, dated 2021)
